{"source": "patent US8541362B2", "about": "“Cyclopropyl compounds and compositions for delivering active agents” (Emisphere Technologies, Inc., priority 2005, dated 2013)", "format_in_all_cases": "in vivo, rat", "key": {"[1]": {"test_system": "Sprague Dawley rats", "test": "Oral delivery of insulin in rats with delivery agent: change in blood glucose", "details": "0.25 mg/kg insulin + 100 mg/kg delivery agent", "procedure": "(§1) General anesthesia was induced in Sprague Dawley rats (250-350 gram) with 5% isoflurane in an anesthetic chamber, and the anesthesia was maintained with 2% isoflurane in 98% oxygen carrier gas up to the end of the study.\n(§2) Jugular vein cannulation was carried out first for blood sampling by creating an incision just above the right clavicle. Using blunt forceps, the connective and adipose tissue were pushed aside and the jugular vein was exposed. The distal end of the exposed jugular vein was ligated, while its proximal end was strained to occlude the blood flow momentarily. A portion of the vessel near to the distal end was nipped, and the silicon catheter was inserted toward the proximal direction. After the catheter was tightened with a silk suture, the skin wound was closed with surgical staples.\n(§3) The jejunum was prepared as follows: the proximal jejunum section was identified first. Plasma insulin and blood glucose levels were determined from a blood sample from the […] and used as a baseline.\n(§4) The animal's abdominal cavity was opened. After the jejunum was identified, the part of the proximal segment was nipped with surgical scissors. A dosing tubing connected to a 1 ml syringe was introduced into the incised jejunum and carefully dosed. After dosing, the dosing tubing was removed. Then, a 2-cm polyethylene tubing was inserted into the jejunum so that the cut opening was located in the middle of the tubing. Both ends of the tube were tied with suture with the jejunum tissue to secure the jejunum, and, after the wound dried, a vet bond was applied over the top of the wound with a cotton swab. A 2 cm bridge tubing was placed to maintain the intestinal fluid flow intact.\n(§5) After dosing and installation of the bridge, the exposed intestines were gently pushed back into place. The exposed wounds were covered with a wet gauge, and then with a paraffin film to prevent dehydration. Thereafter, blood samplings were performed at scheduled time-points.\n(§6) Dose: 0.25 mg/kg Insulin, 100 mg/kg Delivery Agent, Concentration: 0.25 mg/ml, 100 mg/ml. Dose volume: 1 ml/kg.\n(§7) Human recombinant insulin (ICN Biomedicals, Aurora, Ohio) was dissolved in deionized water (ph˜6.5) to obtain stock insulin solutions having a concentration of 15 mg/ml. 7-cyclopropylheptanoic acid was dissolved in deionized water to obtain a 200 mg/ml delivery agent solution. The free acid form of the delivery agent was converted to the sodium salt by adding one equivalent of sodium hydroxide. Solutions were vortexed, sonicated, and heated. If necessary, additional sodium hydroxide was added in μl quantities to achieve uniform solubility in the delivery agent solutions. Solutions were adjusted to a pH of 7.5-8.5 by the addition of either hydrochloric acid or sodium hydroxide, as appropriate. The insulin stock solution was then added to the delivery agent solutions to obtain an administration solution ultimately having an insulin concentration of 0.25 mg/ml. After solubilization and drug addition, administration solutions were brought to a final volume by the addition of deionized water."}, "[2]": {"test": "Oral delivery of insulin in rats with delivery agent: serum insulin by ELISA", "details": "procedure of Example 2 (0.25 mg/kg insulin, 100 mg/kg delivery agent)", "procedure": "as §1, §2, §3, §4, §5, §6, §7\nThe insulin assay was performed as follows. Concentrations of insulin were quantified in rat serum using a sandwich-type ELISA kit (Diagnostic Systems Laboratories, Inc., Webster, Tex.). Samples were collected into capiject tubes containing a clot activator (red top, serum separator tubes). Samples were allowed to clot for ˜20 minutes at 4° C. […]"}, "[3]": {"test_system": "Sprague Dawley rats", "test": "Oral delivery of insulin in rats with delivery agent: change in blood glucose", "details": "delivery agent: insulin = 200 mg: 0.5 mg per Kg"}}}
{"smiles": "O=C(O)CCCCCCC1CC1", "note": "[Compound 1, 7-cyclopropylheptanoic acid]", "values": [{"measurement": "Decrease of blood glucose (%) Average Value", "setting": "[1]; time 0 min", "result": 0, "unit": "%"}, {"measurement": "Decrease of blood glucose (%) Average Value", "setting": "[1]; time 5 min", "result": "−1.5", "unit": "%"}, {"measurement": "Decrease of blood glucose (%) Average Value", "setting": "[1]; time 10 min", "result": "−15.3", "unit": "%"}, {"measurement": "Decrease of blood glucose (%) Average Value", "setting": "[1]; time 20 min", "result": "−32.9", "unit": "%"}, {"measurement": "Decrease of blood glucose (%) Average Value", "setting": "[1]; time 40 min", "result": "−38.7", "unit": "%"}, {"measurement": "Decrease of blood glucose (%) Average Value", "setting": "[1]; time 60 min", "result": "−36.6", "unit": "%"}, {"measurement": "Decrease of blood glucose (%) Average Value", "setting": "[1]; time 90 min", "result": "−21.8", "unit": "%"}]}
{"smiles": "O=C(O)CCCCCCCCC(=O)NC1CC1", "note": "[Compound 9, 10-(cyclopropylamino)-10-oxodecanoic acid]", "values": [{"measurement": "Max Mean Cmax [uU/mL]", "setting": "[2]", "result": "142.7 ± 62.7", "unit": "uU/mL"}]}
{"smiles": "COC(=O)CCCCCCC(=O)NC1CC1", "note": "[Compound 11]", "values": [{"measurement": "Max Mean Cmax [uU/mL]", "setting": "[2]", "result": "84.93 ± 57.8", "unit": "uU/mL"}]}
{"smiles": "COC(=O)CCCCCCCCC(=O)NC1CC1", "note": "[Compound 12]", "values": [{"measurement": "Max Mean Cmax [uU/mL]", "setting": "[2]", "result": "340.4 ± 191.3", "unit": "uU/mL"}]}
{"smiles": "O=C(O)CCCCCCC(=O)NCC1CC1", "note": "[Compound 13]", "values": [{"measurement": "% of Glucose Reduction from Control", "setting": "[3]; time 0 min", "result": "−0.862", "unit": "%"}, {"measurement": "% of Glucose Reduction from Control", "setting": "[3]; time 15 min", "result": "−10.523", "unit": "%"}, {"measurement": "% of Glucose Reduction from Control", "setting": "[3]; time 30 min", "result": "−20.866", "unit": "%"}, {"measurement": "% of Glucose Reduction from Control", "setting": "[3]; time 45 min", "result": "−28.011", "unit": "%"}, {"measurement": "% of Glucose Reduction from Control", "setting": "[3]; time 60 min", "result": "−32.952", "unit": "%"}]}
{"smiles": "COC(=O)CCCCCCC(=O)NCC1CC1", "note": "[Compound 14]", "values": [{"measurement": "Max Mean Cmax [uU/mL]", "setting": "[2]", "result": "71.3 ± 35.2", "unit": "uU/mL"}]}
{"smiles": "O=C(O)CCCCCCCCC(=O)NCC1CC1", "note": "[Compound 15]", "values": [{"measurement": "Max Mean Cmax [uU/mL]", "setting": "[2]", "result": "71.2 ± 33.7", "unit": "uU/mL"}]}
